Measured values as given in publication PMC6199309, “A therapeutic approach to pantothenate kinase associated neurodegeneration” (Nature Communications, 2018).
Where two headings read alike, the source gives them in different places.

Experiments:
[1] = biological target: T1, ABL1(F317L)-nonphosphorylated (Homo sapiens, UniProt P00519, F317L); experiment: KINOMEscan; type: binding; details: read-out: %Ctrl @ 10000nM
T1 construct: purchased DiscoverX KINOMEscan

ABL1-nonphosphorylated = biological target: T2, ABL1-nonphosphorylated (Homo sapiens, UniProt P00519); experiment: KINOMEscan; type: binding; details: read-out: %Ctrl @ 10000nM
T2 construct: purchased DiscoverX KINOMEscan

ADCK3 = biological target: T3, ADCK3 (Homo sapiens, UniProt Q8NI60); experiment: KINOMEscan; type: binding; details: read-out: %Ctrl @ 10000nM
T3 construct: purchased DiscoverX KINOMEscan

AURKC = biological target: T4, AURKC (Homo sapiens, UniProt Q9UQB9); experiment: KINOMEscan; type: binding; details: read-out: %Ctrl @ 10000nM
T4 construct: purchased DiscoverX KINOMEscan

CAMK2A = biological target: T5, CAMK2A (Homo sapiens, UniProt Q9UQM7); experiment: KINOMEscan; type: binding; details: read-out: %Ctrl @ 10000nM
T5 construct: purchased DiscoverX KINOMEscan

CAMKK1 = biological target: T6, CAMKK1 (Homo sapiens, UniProt Q8N5S9); experiment: KINOMEscan; type: binding; details: read-out: %Ctrl @ 10000nM
T6 construct: purchased DiscoverX KINOMEscan

CDC2L2 = biological target: T7, CDC2L2 (Homo sapiens, UniProt Q9UQ88); experiment: KINOMEscan; type: binding; details: read-out: %Ctrl @ 10000nM
T7 construct: purchased DiscoverX KINOMEscan

CDK2 = biological target: T8, CDK2 (Homo sapiens, UniProt P24941); experiment: KINOMEscan; type: binding; details: read-out: %Ctrl @ 10000nM
T8 construct: purchased DiscoverX KINOMEscan

CDK4-cyclinD3 = biological target: T9, CDK4-cyclinD3 (Homo sapiens, UniProt P11802); experiment: KINOMEscan; type: binding; details: read-out: %Ctrl @ 10000nM
T9 construct: purchased DiscoverX KINOMEscan

DCAMKL1 = biological target: T10, DCAMKL1 (Homo sapiens, UniProt O15075); experiment: KINOMEscan; type: binding; details: read-out: %Ctrl @ 10000nM
T10 construct: purchased DiscoverX KINOMEscan

DCAMKL2 = biological target: T11, DCAMKL2 (Homo sapiens, UniProt Q8N568); experiment: KINOMEscan; type: binding; details: read-out: %Ctrl @ 10000nM
T11 construct: purchased DiscoverX KINOMEscan

DYRK2 = biological target: T12, DYRK2 (Homo sapiens, UniProt Q92630); experiment: KINOMEscan; type: binding; details: read-out: %Ctrl @ 10000nM
T12 construct: purchased DiscoverX KINOMEscan

FGFR2 = biological target: T13, FGFR2 (Homo sapiens, UniProt P21802); experiment: KINOMEscan; type: binding; details: read-out: %Ctrl @ 10000nM
T13 construct: purchased DiscoverX KINOMEscan

GRK3 = biological target: T14, GRK3 (Homo sapiens, UniProt P35626); experiment: KINOMEscan; type: binding; details: read-out: %Ctrl @ 10000nM
T14 construct: DNA tag for qPCR (T7 phage fusion or DNA label); purchased DiscoverX KdELECT; host or cells: E. coli BL21-derived (T7 phage) or HEK-293
T14 sequence (P35626 whole entry, the tested form may be a part): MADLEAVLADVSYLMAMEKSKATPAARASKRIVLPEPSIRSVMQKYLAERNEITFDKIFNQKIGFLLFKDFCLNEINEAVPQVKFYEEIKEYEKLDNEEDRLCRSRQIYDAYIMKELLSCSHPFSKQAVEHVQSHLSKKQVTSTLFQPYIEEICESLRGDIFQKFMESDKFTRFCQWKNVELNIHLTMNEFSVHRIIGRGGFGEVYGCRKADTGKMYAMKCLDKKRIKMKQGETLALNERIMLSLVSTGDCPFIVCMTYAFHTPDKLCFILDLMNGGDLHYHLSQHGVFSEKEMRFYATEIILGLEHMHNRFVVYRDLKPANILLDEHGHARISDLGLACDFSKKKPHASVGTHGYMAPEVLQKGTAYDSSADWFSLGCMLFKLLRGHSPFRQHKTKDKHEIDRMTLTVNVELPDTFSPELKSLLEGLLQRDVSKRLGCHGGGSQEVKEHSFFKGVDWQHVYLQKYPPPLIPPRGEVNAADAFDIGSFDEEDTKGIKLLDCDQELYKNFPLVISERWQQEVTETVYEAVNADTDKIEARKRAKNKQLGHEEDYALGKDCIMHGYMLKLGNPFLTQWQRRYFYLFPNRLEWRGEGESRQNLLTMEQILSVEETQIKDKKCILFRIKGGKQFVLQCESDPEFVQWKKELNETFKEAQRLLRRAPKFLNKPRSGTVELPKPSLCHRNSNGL

HUNK = biological target: T15, HUNK (Homo sapiens, UniProt P57058); experiment: KINOMEscan; type: binding; details: read-out: %Ctrl @ 10000nM
T15 construct: purchased DiscoverX KINOMEscan

LATS2 = biological target: T16, LATS2 (Homo sapiens, UniProt Q9NRM7); experiment: KINOMEscan; type: binding; details: read-out: %Ctrl @ 10000nM
T16 construct: purchased DiscoverX KINOMEscan
T16 sequence (Q9NRM7 whole entry): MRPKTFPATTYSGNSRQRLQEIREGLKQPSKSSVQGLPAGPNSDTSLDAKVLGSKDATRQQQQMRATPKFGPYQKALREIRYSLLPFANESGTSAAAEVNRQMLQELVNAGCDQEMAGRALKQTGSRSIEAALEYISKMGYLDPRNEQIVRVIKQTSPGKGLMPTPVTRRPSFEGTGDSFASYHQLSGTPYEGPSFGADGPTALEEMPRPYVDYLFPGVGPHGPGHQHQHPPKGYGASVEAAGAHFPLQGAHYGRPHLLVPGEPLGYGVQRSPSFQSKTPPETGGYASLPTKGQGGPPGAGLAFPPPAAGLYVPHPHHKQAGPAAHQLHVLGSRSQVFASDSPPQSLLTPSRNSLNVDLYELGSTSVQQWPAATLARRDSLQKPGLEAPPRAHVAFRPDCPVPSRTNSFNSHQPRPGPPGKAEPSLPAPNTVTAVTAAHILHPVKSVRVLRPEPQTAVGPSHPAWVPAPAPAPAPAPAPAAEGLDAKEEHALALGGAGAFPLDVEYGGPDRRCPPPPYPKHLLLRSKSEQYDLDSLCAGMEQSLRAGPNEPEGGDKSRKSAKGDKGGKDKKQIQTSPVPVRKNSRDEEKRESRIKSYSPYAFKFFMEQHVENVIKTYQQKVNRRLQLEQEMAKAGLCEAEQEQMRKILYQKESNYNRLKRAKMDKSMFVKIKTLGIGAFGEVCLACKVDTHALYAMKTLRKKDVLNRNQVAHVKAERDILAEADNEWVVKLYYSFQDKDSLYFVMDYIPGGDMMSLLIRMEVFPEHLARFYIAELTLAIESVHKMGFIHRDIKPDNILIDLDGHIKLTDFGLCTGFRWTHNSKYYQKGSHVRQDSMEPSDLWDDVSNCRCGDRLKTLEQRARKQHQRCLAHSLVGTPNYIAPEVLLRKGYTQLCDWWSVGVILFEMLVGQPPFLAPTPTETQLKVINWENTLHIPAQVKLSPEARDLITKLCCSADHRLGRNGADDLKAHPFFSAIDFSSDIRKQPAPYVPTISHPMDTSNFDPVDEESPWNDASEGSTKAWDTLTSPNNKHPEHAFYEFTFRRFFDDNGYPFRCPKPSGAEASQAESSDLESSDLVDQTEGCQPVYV

MKNK2 = biological target: T17, MKNK2 (Homo sapiens, UniProt Q9HBH9); experiment: KINOMEscan; type: binding; details: read-out: %Ctrl @ 10000nM
T17 construct: purchased DiscoverX KINOMEscan

MRCKB = biological target: T18, MRCKB (Homo sapiens, UniProt Q9Y5S2); experiment: KINOMEscan; type: binding; details: read-out: %Ctrl @ 10000nM
T18 construct: purchased DiscoverX KINOMEscan

NIK = biological target: T19, NIK (Homo sapiens, UniProt Q99558); experiment: KINOMEscan; type: binding; details: read-out: %Ctrl @ 10000nM
T19 construct: purchased DiscoverX KINOMEscan
T19 sequence (Q99558 whole entry): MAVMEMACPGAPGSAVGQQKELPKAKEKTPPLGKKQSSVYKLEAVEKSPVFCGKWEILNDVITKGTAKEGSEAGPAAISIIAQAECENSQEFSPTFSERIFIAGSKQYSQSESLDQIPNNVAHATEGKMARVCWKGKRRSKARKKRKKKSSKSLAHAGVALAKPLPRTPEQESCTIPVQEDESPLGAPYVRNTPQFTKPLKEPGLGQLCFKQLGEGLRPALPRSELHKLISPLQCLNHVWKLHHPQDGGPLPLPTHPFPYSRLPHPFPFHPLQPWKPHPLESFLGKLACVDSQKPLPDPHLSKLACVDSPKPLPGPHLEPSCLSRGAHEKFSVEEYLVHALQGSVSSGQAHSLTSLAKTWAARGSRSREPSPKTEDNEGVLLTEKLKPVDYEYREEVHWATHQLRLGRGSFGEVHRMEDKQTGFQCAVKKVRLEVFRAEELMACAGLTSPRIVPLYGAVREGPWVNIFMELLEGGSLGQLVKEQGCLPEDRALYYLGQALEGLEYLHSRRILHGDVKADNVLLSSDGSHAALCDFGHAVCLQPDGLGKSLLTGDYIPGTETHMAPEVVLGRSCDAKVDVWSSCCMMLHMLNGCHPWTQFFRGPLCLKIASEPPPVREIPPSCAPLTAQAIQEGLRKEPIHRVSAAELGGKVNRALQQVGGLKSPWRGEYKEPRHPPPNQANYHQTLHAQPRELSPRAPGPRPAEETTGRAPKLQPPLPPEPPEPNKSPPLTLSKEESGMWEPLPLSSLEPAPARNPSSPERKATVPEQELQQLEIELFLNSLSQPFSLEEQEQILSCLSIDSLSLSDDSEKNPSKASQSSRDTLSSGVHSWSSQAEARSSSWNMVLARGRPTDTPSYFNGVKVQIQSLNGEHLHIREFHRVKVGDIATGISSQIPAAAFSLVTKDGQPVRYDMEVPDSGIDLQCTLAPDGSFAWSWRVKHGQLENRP

PAK7 = biological target: T20, PAK7 (Homo sapiens, UniProt Q9P286); experiment: KINOMEscan; type: binding; details: read-out: %Ctrl @ 10000nM
T20 construct: purchased DiscoverX KINOMEscan

PFPK5(P.falciparum) = biological target: T21, PFPK5(P.falciparum) (Plasmodium falciparum, UniProt P61075); experiment: KINOMEscan; type: binding; details: read-out: %Ctrl @ 10000nM
T21 construct: purchased DiscoverX KINOMEscan

PIK3C2B = biological target: T22, PIK3C2B (Homo sapiens, UniProt O00750); experiment: KINOMEscan; type: binding; details: read-out: %Ctrl @ 10000nM
T22 construct: purchased DiscoverX KINOMEscan

PIK3CG = biological target: T23, PIK3CG (Homo sapiens, UniProt P48736); experiment: KINOMEscan; type: binding; details: read-out: %Ctrl @ 10000nM
T23 construct: purchased DiscoverX KINOMEscan

PIK4CB = biological target: T24, PIK4CB (Homo sapiens, UniProt Q9UBF8); experiment: KINOMEscan; type: binding; details: read-out: %Ctrl @ 10000nM
T24 construct: purchased DiscoverX KINOMEscan

PIP5K2C = biological target: T25, PIP5K2C (Homo sapiens, UniProt Q8TBX8); experiment: KINOMEscan; type: binding; details: read-out: %Ctrl @ 10000nM
T25 construct: purchased DiscoverX KINOMEscan

QSK = biological target: T26, QSK (Homo sapiens, UniProt Q9Y2K2); experiment: KINOMEscan; type: binding; details: read-out: %Ctrl @ 10000nM
T26 construct: purchased DiscoverX KINOMEscan

RIOK2 = biological target: T27, RIOK2 (Homo sapiens, UniProt Q9BVS4); experiment: KINOMEscan; type: binding; details: read-out: %Ctrl @ 10000nM
T27 construct: purchased DiscoverX KINOMEscan

[2] = biological target: T28, RSK1(Kin.Dom.1-N-terminal) (Homo sapiens, UniProt Q15418); experiment: KINOMEscan; type: binding; details: read-out: %Ctrl @ 10000nM
T28 construct: RSK1(Kin.Dom.1-N-terminal); purchased DiscoverX KINOMEscan

[3] = biological target: T29, RSK3(Kin.Dom.1-N-terminal) (Homo sapiens, UniProt Q15349); experiment: KINOMEscan; type: binding; details: read-out: %Ctrl @ 10000nM
T29 construct: RSK3(Kin.Dom.1-N-terminal); purchased DiscoverX KINOMEscan

VEGFR2 = biological target: T30, VEGFR2 (Homo sapiens, UniProt P35968); experiment: KINOMEscan; type: binding; details: read-out: %Ctrl @ 10000nM
T30 construct: DNA label for qPCR (T7 phage fusion or DNA tag); purchased DiscoverX scanMAX; host or cells: E. coli BL21-derived (T7 phage) or HEK-293

WNK4 = biological target: T31, WNK4 (Homo sapiens, UniProt Q96J92); experiment: KINOMEscan; type: binding; details: read-out: %Ctrl @ 10000nM
T31 construct: DNA label for qPCR (T7 phage fusion or DNA tag); purchased DiscoverX scanMAX; host or cells: E. coli BL21-derived (T7 phage) or HEK-293
T31 sequence (Q96J92 whole entry, the tested form may be a part): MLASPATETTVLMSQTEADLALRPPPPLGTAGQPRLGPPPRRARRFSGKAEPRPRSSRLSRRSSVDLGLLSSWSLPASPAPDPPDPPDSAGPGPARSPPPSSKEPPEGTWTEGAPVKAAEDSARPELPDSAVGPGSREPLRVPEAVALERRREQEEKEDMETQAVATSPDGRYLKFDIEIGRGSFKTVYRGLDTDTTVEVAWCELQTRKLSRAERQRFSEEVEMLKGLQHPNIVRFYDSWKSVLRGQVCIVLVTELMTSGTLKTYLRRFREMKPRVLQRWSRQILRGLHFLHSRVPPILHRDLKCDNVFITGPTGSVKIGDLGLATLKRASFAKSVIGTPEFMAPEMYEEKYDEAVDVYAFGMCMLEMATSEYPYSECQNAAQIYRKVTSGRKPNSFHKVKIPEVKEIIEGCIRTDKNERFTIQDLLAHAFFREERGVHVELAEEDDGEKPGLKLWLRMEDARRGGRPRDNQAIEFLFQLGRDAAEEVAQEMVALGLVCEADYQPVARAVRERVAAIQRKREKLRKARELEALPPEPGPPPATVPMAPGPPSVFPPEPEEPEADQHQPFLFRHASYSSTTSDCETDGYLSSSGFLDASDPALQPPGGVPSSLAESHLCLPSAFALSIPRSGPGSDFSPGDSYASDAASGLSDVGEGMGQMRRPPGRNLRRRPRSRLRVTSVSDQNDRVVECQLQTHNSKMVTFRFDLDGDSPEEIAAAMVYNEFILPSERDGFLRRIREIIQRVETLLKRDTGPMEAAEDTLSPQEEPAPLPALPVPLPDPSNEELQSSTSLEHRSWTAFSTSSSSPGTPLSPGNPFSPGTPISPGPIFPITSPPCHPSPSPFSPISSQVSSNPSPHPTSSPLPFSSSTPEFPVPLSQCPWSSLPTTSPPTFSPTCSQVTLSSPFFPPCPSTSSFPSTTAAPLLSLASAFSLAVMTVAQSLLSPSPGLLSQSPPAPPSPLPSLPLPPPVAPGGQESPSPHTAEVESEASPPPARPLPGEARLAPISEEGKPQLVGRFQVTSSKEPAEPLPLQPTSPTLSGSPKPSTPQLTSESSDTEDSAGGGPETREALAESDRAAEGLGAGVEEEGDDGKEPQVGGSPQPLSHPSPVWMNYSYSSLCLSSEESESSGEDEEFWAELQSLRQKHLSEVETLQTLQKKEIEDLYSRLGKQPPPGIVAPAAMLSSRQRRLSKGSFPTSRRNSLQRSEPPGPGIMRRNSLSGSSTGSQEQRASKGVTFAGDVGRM

YANK1 = biological target: T32, YANK1 (Homo sapiens, UniProt Q8WU08); experiment: KINOMEscan; type: binding; details: read-out: %Ctrl @ 10000nM
T32 construct: DNA label for qPCR (T7 phage fusion or DNA tag); purchased DiscoverX scanMAX; host or cells: E. coli BL21-derived (T7 phage) or HEK-293

PAMPA-BBB = type: in vitro ADME; details: BBB = Blood Brain Barrier, read-out: PAMPA-BBB, Avg Pe
[4] = Pharmacokinetics in plasma of male BALB/c mice; type: in vivo; details: mouse
Method: Supplementary Table 2. […] Mean pharmacokinetic parameters of PZ- […]
administration to male BALB/c micea.
Dose Tmax C0/ Cmaxc AUClast AUCinf T1/2 CL Vss %Fd […]
aPharmacokinetics measurements performed by Sai Life Sciences Limited. […]
cBack extrapolated concentration for i.v. group. dBioavailability was calculated based on AUClast.

SIK2 = biological target: T33, SIK2 (Homo sapiens, UniProt Q9H0K1); experiment: KINOMEscan KdELECT; type: binding
T33 construct: DNA tag for qPCR (T7 phage fusion or DNA label); purchased DiscoverX KdELECT; host or cells: E. coli BL21-derived (T7 phage) or HEK-293
T33 sequence (Q9H0K1 whole entry, the tested form may be a part): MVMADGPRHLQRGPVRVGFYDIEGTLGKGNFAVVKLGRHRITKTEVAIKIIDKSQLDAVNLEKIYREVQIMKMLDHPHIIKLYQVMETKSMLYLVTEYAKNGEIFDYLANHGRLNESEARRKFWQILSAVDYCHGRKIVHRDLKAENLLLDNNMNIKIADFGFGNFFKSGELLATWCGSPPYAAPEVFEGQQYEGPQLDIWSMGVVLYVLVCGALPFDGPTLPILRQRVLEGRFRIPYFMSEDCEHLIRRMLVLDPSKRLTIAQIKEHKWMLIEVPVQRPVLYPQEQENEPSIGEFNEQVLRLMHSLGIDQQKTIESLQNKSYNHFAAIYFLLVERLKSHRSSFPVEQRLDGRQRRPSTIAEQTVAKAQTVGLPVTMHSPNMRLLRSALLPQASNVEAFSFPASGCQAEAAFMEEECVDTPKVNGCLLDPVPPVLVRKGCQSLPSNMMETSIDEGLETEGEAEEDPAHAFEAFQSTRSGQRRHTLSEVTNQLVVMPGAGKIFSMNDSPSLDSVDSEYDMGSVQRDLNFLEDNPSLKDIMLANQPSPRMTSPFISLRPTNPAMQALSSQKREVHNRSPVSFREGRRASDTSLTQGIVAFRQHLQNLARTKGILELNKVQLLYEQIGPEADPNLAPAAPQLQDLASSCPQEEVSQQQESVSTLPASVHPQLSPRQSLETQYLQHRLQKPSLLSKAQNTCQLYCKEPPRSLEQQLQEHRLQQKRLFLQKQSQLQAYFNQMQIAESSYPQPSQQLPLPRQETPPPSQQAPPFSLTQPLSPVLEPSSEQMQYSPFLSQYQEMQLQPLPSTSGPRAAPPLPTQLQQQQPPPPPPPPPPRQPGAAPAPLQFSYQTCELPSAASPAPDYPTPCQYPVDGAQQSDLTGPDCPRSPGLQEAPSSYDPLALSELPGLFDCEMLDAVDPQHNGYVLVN

Molecule `CC(C)c1ccc(CC(=O)N2CCN(c3ccc(C#N)nn3)CC2)cc1` [PZ-2891, 6-(4-(2-(4-isopropylphenyl)acetyl)piperazin-1-yl)pyridazine-3-carbonitrile] has a remaining binding at 10 µM [1] of 73%, a remaining binding at 10 µM (ABL1-nonphosphorylated) of 65% and a remaining binding at 10 µM (ADCK3) of 100%. The remaining binding at 10 µM (AURKC) was 94%, the remaining binding at 10 µM (CAMK2A) was 98% and the remaining binding at 10 µM (CAMKK1) was 89%. It also gave a remaining binding at 10 µM (CDC2L2) of 87%, a remaining binding at 10 µM (CDK2) of 87% and a remaining binding at 10 µM (CDK4-cyclinD3) of 71%. It also gave a remaining binding at 10 µM (DCAMKL1) of 80%, a remaining binding at 10 µM (DCAMKL2) of 89% and a remaining binding at 10 µM (DYRK2) of 97%. The remaining binding at 10 µM (FGFR2) was 100%, the remaining binding at 10 µM (GRK3) was 35% and the remaining binding at 10 µM (HUNK) was 100%. For the same molecule, the remaining binding at 10 µM (LATS2) was 82%, the remaining binding at 10 µM (MKNK2) was 79% and the remaining binding at 10 µM (MRCKB) was 100%. The remaining binding at 10 µM (NIK) was 100%, the remaining binding at 10 µM (PAK7) was 73% and the remaining binding at 10 µM (PFPK5(P.falciparum)) was 99%. It also gave a remaining binding at 10 µM (PIK3C2B) of 100%, a remaining binding at 10 µM (PIK3CG) of 96% and a remaining binding at 10 µM (PIK4CB) of 84%. For the same molecule, the remaining binding at 10 µM (PIP5K2C) was 85%, the remaining binding at 10 µM (QSK) was 82% and the remaining binding at 10 µM (RIOK2) was 86%. It also gave a remaining binding at 10 µM [2] of 100%, a remaining binding at 10 µM [3] of 72% and a remaining binding at 10 µM (VEGFR2) of 75%. The remaining binding at 10 µM (WNK4) was 69%, the remaining binding at 10 µM (YANK1) was 74% and the Papp (PAMPA-BBB) was 52 ×10⁻⁶ cm/s. It also gave a half-life ([4]; intravenous, 2 mg/kg, mice plasma, read-out: T1/2 (mice plasma)) of 17 min, an AUC(0-inf) ([4]; plasma, iv, i.v. 2 mg/kg) of 611 ng·h/mL and an AUC(0-t) ([4]; plasma, iv, i.v. 2 mg/kg) of 609 ng·h/mL. The clearance ([4]; plasma, iv, i.v. 2 mg/kg) was 54.5 mL/min/kg, the C0 ([4]; plasma, iv, i.v. 2 mg/kg, back extrapolated concentration) was 2810 ng/mL and the half-life ([4]; plasma, iv, i.v. 2 mg/kg, read-out: T1/2 (converted)) was 16.8 min. It also gave a Vd ([4]; plasma, iv, i.v. 2 mg/kg, read-out: Vss) of 0.94 L/kg, an AUC(0-inf) ([4]; plasma, po, p.o. 10 mg/kg) of 1420 ng·h/mL and an AUC(0-t) ([4]; plasma, po, p.o. 10 mg/kg) of 1400 ng·h/mL. The Cmax ([4]; plasma, po, p.o. 10 mg/kg) was 1890 ng/mL, the Tmax ([4]; plasma, po, p.o. 10 mg/kg) was 15 min and the Kd (SIK2; SIK2) was > 30 µM. For the same molecule, the Kd (SIK2; SIK2 Replicate ID = 1) was > 30 µM and the Kd (SIK2; SIK2 Replicate ID = 2) was > 30 µM.
